13 compounds from ChEMBL document CHEMBL1144842, “Design and campaign synthesis of piperidine- and thiazole-based histone deacetylase inhibitors” (Bioorg Med Chem Lett, 2008) can be followed below.

One data set relates to HCT-116. Put plainly: Antiproliferative activity against human HCT116 cells after 72 hrs by MTS assay. The format is functional, cell-based. The settings on record: HCT-116, 72 h.
The target of another data set is Histone deacetylase 1 (Homo sapiens, UniProt Q13547). Put plainly: Inhibition of human recombinant HDAC1 expressed in Hi5 cells. Further details: species or system BTI-TN-5B1-4.
A short description of data set [1]: Half life in Han Wistar rat at 70.9 umol/kg, po. To be noted: in vivo. The format is ADME, organism-based.
Data set [2] in a line: Unbound ligand in Han Wistar rat plasma at 70.9 umol.kg, po. Format: ADME, organism-based.
The nature of data set [3]: Half life in mouse at 70.9 umol/kg, po. The format is ADME, organism-based. The settings on record: in vivo.
A short description of data set [4]: Half life in Han Wistar rat at 5 umol/kg, iv. Format: ADME, organism-based. To be noted: in vivo.
A short description of data set [5]: Clearance in Han Wistar rat at 5 umol/kg, iv. The format is ADME, organism-based. The settings on record: in vivo.
The nature of data set [6]: Volume of distribution in steady state in Han Wistar rat at 5 umol/kg, iv. The format is ADME, organism-based. To be noted: in vivo, read-out: Vdss.
The nature of data set [7]: Solubility of the compound at pH 7.4. The settings on record: buffer.
Data set [8] is described as follows: Half life in mouse at 5 umol/kg, iv. Format: ADME, organism-based. The settings on record: in vivo.
Data set [9] is described as follows: Clearance in Han Wistar rat at 2.5 umol/kg, iv. The format is ADME, organism-based. The settings on record: in vivo.
Data set [10] can be described thus: Half life in Beagle dog at 0.8 umol/kg, iv. The format is ADME, organism-based, Canis lupus familiaris. The settings on record: in vivo.
Data set [11] can be described thus: Unbound ligand in Beagle dog plasma at 3 umol/kg, po. To be noted: at 3 µmol/kg. The format is ADME, organism-based, Canis lupus familiaris.
Data set [12] in a line: Half life in Han Wistar rat at 2.5 umol/kg, iv. The format is ADME, organism-based. To be noted: in vivo.
Data set [13] is described as follows: Clearance in Beagle dog at 0.8 umol/kg, iv. Format: ADME, organism-based, Canis lupus familiaris. The settings on record: in vivo.
Data set [14] in a line: Volume of distribution in steady state in Han Wistar rat at 2.5 umol/kg, iv. Format: ADME, organism-based. The settings on record: in vivo, read-out: Vdss.
The nature of data set [15]: Volume of distribution in steady state in Beagle dog at 0.8 umol/kg, iv. Format: ADME, organism-based, Canis lupus familiaris. To be noted: in vivo, read-out: Vdss.
The nature of data set [16]: Unbound ligand in Han Wistar rat plasma at 54.8 umol/kg, po. The format is ADME, organism-based. To be noted: at 54.8 µmol/kg.
For a further data set, the system named is Homo sapiens. Put plainly: Antitumor activity against human A549a xenografted mouse at 12.5 mg/kg, po for 18 days. The format is functional, organism-based. Further details: dose 12.5 mg/kg. Background: A xenograft is tissue or cells of one species grown in another, often human tumour cells in immunodeficient mice.
A short description of data set [17]: Half life in Beagle dog at 3 umol/kg, po. The settings on record: in vivo. Format: ADME, organism-based, Canis lupus familiaris.
The nature of data set [18]: Half life in Han Wistar rat at 54.8 umol/kg, po. The format is ADME, organism-based. The settings on record: in vivo.
Data set [19] is described as follows: Half life in mouse at 54.8 umol/kg, po. Format: ADME, organism-based. To be noted: in vivo.
The nature of data set [20]: Clearance in mouse at 5 umol/kg, iv. The format is ADME, organism-based. The settings on record: in vivo.
Data set [21] is described as follows: Volume of distribution in steady state in mouse at 5 umol/kg, iv. The format is ADME, organism-based. To be noted: in vivo, read-out: Vdss.
The target in a further data set is Cytochrome P450 3A4 (Homo sapiens, UniProt P08684).
The nature of data set [22]: Lipophilicity, log D of the compound. To be noted: octanol/water.
The target in a further data set is Cytochrome P450 2D6 (Homo sapiens, UniProt P10635).
A further data set concerns the target Cytochrome P450 2C19 (Homo sapiens, UniProt P33261).
The next data set deals with Cytochrome P450 2C9 (Homo sapiens, UniProt P11712).
The next data set addresses Histone deacetylase. Nature of the data set: Inhibition of human HDAC in HeLa cells. Format: cell-based.
A short description of data set [23]: Half life in Han Wistar rat at 10 umol/kg, po. To be noted: in vivo. Format: ADME, organism-based.
A short description of data set [24]: Unbound ligand in Han Wistar rat plasma at 10 umol/kg, po. The format is ADME, organism-based.
The nature of data set [25]: Unbound ligand in mouse plasma at 54.8 umol/kg, po. The format is ADME, organism-based.

pIC50: −log10 of the molar value. Active and inactive are the calls of the source. No cut-off for these calls is given here. Some results are limits rather than exact numbers.

Histone deacetylase 1, sequence (Q13547 whole entry): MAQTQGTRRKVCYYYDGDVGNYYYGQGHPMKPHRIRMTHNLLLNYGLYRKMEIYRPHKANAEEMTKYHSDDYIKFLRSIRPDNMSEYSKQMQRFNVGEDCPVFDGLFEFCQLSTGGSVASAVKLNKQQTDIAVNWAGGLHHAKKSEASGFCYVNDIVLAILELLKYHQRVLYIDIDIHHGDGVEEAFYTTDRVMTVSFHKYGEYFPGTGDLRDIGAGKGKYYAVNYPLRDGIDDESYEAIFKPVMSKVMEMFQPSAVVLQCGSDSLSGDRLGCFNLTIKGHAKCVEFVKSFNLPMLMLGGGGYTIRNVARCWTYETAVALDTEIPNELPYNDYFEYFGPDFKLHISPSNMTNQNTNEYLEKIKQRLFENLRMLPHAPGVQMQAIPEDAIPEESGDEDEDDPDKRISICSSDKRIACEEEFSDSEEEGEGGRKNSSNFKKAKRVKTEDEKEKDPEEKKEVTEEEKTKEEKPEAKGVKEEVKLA
Cytochrome P450 2C9, sequence (P11712 whole entry): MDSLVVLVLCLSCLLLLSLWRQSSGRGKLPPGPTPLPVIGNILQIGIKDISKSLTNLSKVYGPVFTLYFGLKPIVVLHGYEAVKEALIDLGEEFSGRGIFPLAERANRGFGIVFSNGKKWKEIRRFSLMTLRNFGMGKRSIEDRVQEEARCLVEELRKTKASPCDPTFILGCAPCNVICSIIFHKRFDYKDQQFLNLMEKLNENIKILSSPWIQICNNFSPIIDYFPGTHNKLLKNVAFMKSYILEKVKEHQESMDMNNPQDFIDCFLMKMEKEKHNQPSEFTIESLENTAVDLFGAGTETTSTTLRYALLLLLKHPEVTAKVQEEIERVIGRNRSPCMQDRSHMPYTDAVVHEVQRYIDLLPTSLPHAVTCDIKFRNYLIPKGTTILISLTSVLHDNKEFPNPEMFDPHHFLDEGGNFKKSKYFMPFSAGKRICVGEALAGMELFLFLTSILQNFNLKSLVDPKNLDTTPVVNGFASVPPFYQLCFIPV
Cytochrome P450 2D6, sequence (P10635 whole entry): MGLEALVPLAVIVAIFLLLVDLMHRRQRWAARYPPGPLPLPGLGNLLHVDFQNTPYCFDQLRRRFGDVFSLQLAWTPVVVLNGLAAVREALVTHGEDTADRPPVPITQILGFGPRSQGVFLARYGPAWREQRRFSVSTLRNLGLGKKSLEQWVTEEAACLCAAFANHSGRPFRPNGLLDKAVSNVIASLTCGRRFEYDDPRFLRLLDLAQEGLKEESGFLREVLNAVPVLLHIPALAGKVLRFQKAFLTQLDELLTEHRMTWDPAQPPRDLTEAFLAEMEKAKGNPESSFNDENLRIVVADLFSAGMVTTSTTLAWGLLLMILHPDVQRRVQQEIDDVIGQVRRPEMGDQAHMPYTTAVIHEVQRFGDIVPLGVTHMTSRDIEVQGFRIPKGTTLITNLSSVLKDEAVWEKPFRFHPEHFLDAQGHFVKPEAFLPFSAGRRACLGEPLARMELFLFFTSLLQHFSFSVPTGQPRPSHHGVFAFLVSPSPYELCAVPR
Cytochrome P450 3A4, sequence (P08684 whole entry): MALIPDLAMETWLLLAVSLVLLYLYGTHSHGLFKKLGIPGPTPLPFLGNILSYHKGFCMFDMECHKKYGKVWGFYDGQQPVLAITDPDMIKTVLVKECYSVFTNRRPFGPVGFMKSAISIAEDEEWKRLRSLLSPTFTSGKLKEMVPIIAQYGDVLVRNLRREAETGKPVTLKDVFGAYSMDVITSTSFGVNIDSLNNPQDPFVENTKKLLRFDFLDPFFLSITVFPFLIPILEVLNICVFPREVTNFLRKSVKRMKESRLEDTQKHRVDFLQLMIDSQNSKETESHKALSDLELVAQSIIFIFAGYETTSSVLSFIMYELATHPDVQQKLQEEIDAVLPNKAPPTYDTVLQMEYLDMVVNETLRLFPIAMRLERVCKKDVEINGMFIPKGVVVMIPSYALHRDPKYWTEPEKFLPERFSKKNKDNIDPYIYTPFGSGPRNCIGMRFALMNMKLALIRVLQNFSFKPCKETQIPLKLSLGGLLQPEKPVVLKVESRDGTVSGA
Cytochrome P450 2C19, sequence (P33261 whole entry): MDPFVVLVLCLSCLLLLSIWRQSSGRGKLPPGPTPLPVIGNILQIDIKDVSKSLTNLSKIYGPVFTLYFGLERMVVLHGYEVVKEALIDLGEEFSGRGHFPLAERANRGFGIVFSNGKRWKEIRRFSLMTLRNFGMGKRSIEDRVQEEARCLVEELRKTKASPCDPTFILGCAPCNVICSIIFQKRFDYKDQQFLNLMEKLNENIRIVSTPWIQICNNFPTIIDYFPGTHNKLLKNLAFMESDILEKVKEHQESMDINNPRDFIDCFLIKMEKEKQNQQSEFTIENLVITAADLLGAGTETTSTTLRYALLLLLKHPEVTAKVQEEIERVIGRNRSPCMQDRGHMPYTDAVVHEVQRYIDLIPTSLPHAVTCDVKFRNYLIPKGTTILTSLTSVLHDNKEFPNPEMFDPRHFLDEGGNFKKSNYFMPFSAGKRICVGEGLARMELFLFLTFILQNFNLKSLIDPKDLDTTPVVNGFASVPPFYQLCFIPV

A word on the pIC50: it is the negative decadic logarithm of the IC50, by convention in mol/L. As for `Nc1ccccc1NC(=O)c1ccc(-c2ncc(CN3CCCCC3)s2)cc1`, the negative logarithm of the IC50 (pIC50) with HCT-116 was 6.84; at Histone deacetylase 1 it was 7.66.
As a reminder, the half-life is how long it takes for the measured level to halve. Read a high half-life as slow decline. Broadly, the fraction unbound is free concentration divided by total concentration. Higher therefore signals much free substance. Usually clearance stands for the volume of plasma or blood freed of the substance per unit of time. High values mean a high capacity for elimination, low ones a low capacity for elimination. What is called solubility is the dissolved amount per volume that the medium holds. Read a high solubility as much dissolved substance. For the compound `CCNCc1cnc(-c2ccc(C(=O)Nc3ccccc3N)cc2)s1`, the figures for the half-life in data set [1], in [3] and in data set [4] were 2.1 h, 1.1 h and 5.2 h, respectively. Moreover, the fraction unbound in data set [2] came out at 0.54. The same compound registered a clearance in data set [5] of 38 mL/min/kg. Moreover, the Vd in data set [6] stood at 7.3 L/kg. The compound also yielded a solubility in [7] of more than 500 µM. Further, the negative logarithm of the IC50 (pIC50) in the data set with HCT-116 is 6.69; at Histone deacetylase 1 it was 7.42.
Take `CCNC(=O)c1ccc(CN2CCC(c3ccc(C(=O)Nc4ccccc4N)cc3)CC2)cc1`: the half-life is 4.8 h in [8]; 10.2 h in data set [10]; 1.7 h in data set [12]; 7.2 h in data set [17]; 3.7 h in data set [18]; 3.2 h in [19]. For the same compound, the clearance in data set [9] worked out at 16 mL/min/kg; in data set [13], 7 mL/min/kg; in data set [20], 36 mL/min/kg. For the same compound, the fraction unbound in [11] came to 0.33; in data set [16], 0.21. Moreover, the Vd in data set [14] came out at 3.5 L/kg; in [15], 4.2 L/kg; in [21], 5 L/kg. Further, the result with Homo sapiens was Active. Besides, the pIC50 in the data set with HCT-116 was 6.44; at Histone deacetylase 1, 7.46.
By logD is commonly meant lipophilicity at a set pH, counting ionised and neutral species. On to `Nc1ccccc1NC(=O)c1ccc(C2CCN(Cc3ccc(C(=O)NC4CC4)cc3)CC2)cc1`, for which the pIC50 on Cytochrome P450 3A4 was less than 5.00; against Cytochrome P450 2D6, less than 5.00; on Cytochrome P450 2C19, less than 5.00; with HCT-116 it was 6.38; at Histone deacetylase 1 it was 7.24; at Cytochrome P450 2C9 it was less than 5.00. In [22], the logD was 2.31.
As to `Nc1ccccc1NC(=O)c1ccc(N2CCOCC2)cc1`, the “Log IC50” value at Histone deacetylase is on record as -4.78. Moreover, the logD in data set [22] amounted to 1.2. In addition, the pIC50 in the data set with HCT-116 was 5.13.
Regarding `CCCNCc1cnc(-c2ccc(C(=O)Nc3ccccc3N)cc2)s1`, the solubility in data set [7] was more than 500 µM. Also, the negative logarithm of the IC50 (pIC50) with HCT-116 is 6.73; at Histone deacetylase 1 it was 7.56.
Take `CN(C)C(=O)c1ccc(CN2CCC(c3ccc(C(=O)Nc4ccccc4N)cc3)CC2)cc1`: the half-life in [23] was 2.1 h; in data set [4], 1.6 h; in data set [19], 3.8 h. The pIC50 at Cytochrome P450 3A4 is less than 5.00; against Cytochrome P450 2D6, less than 5.00; at Cytochrome P450 2C19, less than 5.00; in the data set on HCT-116 it was 6.32; at Histone deacetylase 1, 7.07; against Cytochrome P450 2C9, less than 5.00. In [22], this compound displayed a pH-dependent lipophilicity (logD) of 1.53. In data set [5], the clearance came to 49 mL/min/kg. Besides, the Vd in [6] amounted to 3.1 L/kg. Moreover, the values for the fraction unbound in data set [24] and in data set [25] were 0.28 and 0.4, respectively.
On to `CN1CCC(c2ccc(C(=O)Nc3ccccc3N)cc2)CC1`, for which the “Log IC50” value on Histone deacetylase is listed as -5.23. The compound further returned a logD in data set [22] of less than 0.5. Besides, the values for the pIC50 in the data set with HCT-116 and at Histone deacetylase 1 were 6.08 and 6.86, respectively.
On to `Nc1ccccc1NC(=O)c1ccc(C2CCN(CCC(=O)Nc3ccccc3F)CC2)cc1`, for which the pIC50 against Cytochrome P450 3A4 was 5.00; against Cytochrome P450 2D6, 5.00; at Cytochrome P450 2C19 it was 5.00; with HCT-116 it was 6.52; on Histone deacetylase 1, 7.17; against Cytochrome P450 2C9, 5.00. The compound also yielded a logD in data set [22] of 2.76.
On to `Nc1ccccc1NC(=O)c1ccc(N2CCN(Cc3ccccc3)CC2)cc1`, for which the “Log IC50” value on Histone deacetylase is reported as -4.44. The same compound gave a negative-log IC50 (pIC50) in the data set with HCT-116 of 5.63.
With `CNC(=O)c1ccc(CN2CCC(c3ccc(C(=O)Nc4ccccc4N)cc3)CC2)cc1`, the pIC50 on Cytochrome P450 3A4 was less than 5.00; on Cytochrome P450 2D6, less than 5.00; on Cytochrome P450 2C19, less than 5.00; with HCT-116, 6.36; on Histone deacetylase 1, 7.51; against Cytochrome P450 2C9, less than 5.00. This compound also registered a logD in data set [22] of 1.99.
In the data set with HCT-116, `Nc1ccccc1NC(=O)c1ccc(-c2nccs2)cc1` gave a pIC50 of 5.74.
On to `Nc1ccccc1NC(=O)c1ccc(C2CCN(Cc3ccccc3)CC2)cc1`, for which the “Log IC50” value on Histone deacetylase is listed as -4.57. The pIC50 with HCT-116 is 6.36; at Histone deacetylase 1, 7.35.
